Source: patent US8546338B2, “Self-assembling hydrogels based on dicephalic peptide amphiphiles” (Johnson & Johnson Consumer Companies, Inc., priority 2010, dated 2013)
Values joined by “and” are separate entries in the source; they are usually repeats but may differ in a detail not shown here. Equal entries are not always repeated.

Assays:
[1] = Gelation experiments: inversion test for self-supporting hydrogels; format: physicochemical; conditions: for Gelation (self-supporting gel on inversion), DMEM: DPA solution in water mixed 1:1 with DMEM; for Gelation (self-supporting gel on inversion), PBS / Gelation (self-supporting gel on inversion), Water: final concentrations 1, 2 and 4 weight percent tested; for Concentration at which gel forms, Water / Gelation (self-supporting gel on inversion), Water: in water; for Concentration at which gel forms, DMEM: mixed with DMEM
Method: Inversion tests were performed to determine qualitatively under which conditions the various DPAs formed self-supporting hydrogels. The various types of DPAs were tested by dissolving them in ultrapure water (>18 MΩ resistivity) at double the desired final concentration followed by mixing in a 1:1 ratio with different liquid mediums. Gelation was deemed to have occurred if the gel supported its own weight upon inverting the vial (FIG. 3A and FIG. 3B). Gelation was tested at final concentrations of 1, 2 and 4 weight percent. We tested phosphate buffered saline (PBS), and Dulbecco's modified eagle media (DMEM) as liquid medium. Typical scale is 100 μl each of DPA solution in water and mixing medium but other scales have been tested. Finally, if no spontaneous gelation occurs, 10 μl of 100 mg/cc calcium chloride solution was added to induce gelation.

[2] = Oscillating rheology, time sweep (kinetics of formation); format: physicochemical; conditions: 2 wt % gels in DMEM
Method: Oscillating rheology by the parallel plates method (radius=25 mm) was performed on 400 μl gels to assess the mechanical strengths of gels. Time sweeps were performed to evaluate kinetics of formation at a constant strain rate of 1% and frequency of 1 rad/s. Strain sweeps were performed ranging from 1-100% strain in increments of 2% at a constant frequency of 1 rad/s. Cross-over of G′ and G″ was used to determine the gel point and point of breakdown. Time sweeps were initiated immediately after mixing the solutions that lead to DPA hydrogel formation. In the strain sweeps, the gels were allowed to form on the plate for 30 minutes before the measurement is initiated.
The gelation process was initiated on the plate at 25° C. by the addition of 10 μl of 100 mg/ml calcium chloride solution to a solution of the DPA in DMEM.

[3] = tested on: human kidney derived cells (hKDCs); experiment: Cell viability of encapsulated hKDCs in DPA gels (Live/Dead); format: cell-based; conditions: 2% DPA gel, after 1, 2 and 3 weeks
Method: The viability and proliferation of cells in the gels was evaluated by encapsulating human kidney derived cells (hKDCs) in the gels. hKDC were isolated as described in US Patent Publication Number 2008/0112939. Cells were thawed from storage and cultured for four days in renal epithelial growth media (REGM) media. After four days, the cells were trypsinized and counted by the Guava ViaCount (Millipore, Billerica, Mass.) methodology. Cells were re-suspended in REGM media at a density of 1,000,000 cells/ml. Encapsulation of the cells in the gels was achieved by adding 100 μl cell suspension to 100 μl of a 4 wt % DPA solution in ultrapure in a 24 well plate, resulting in a final DPA concentration of 2%. The gels were incubated for 1 h at 37° C., 5% CO2 after which 1000 μl media was added on top of the gel. Cells were incubated at 37° C., 5% CO2. Every 3-4 days of culture, 500 μl media was replaced. The cells were cultured for 3 weeks and cells were assessed after 1, 2 and 3 weeks with Live/Dead.

[4] = tested on: human internal mammary artery derived cells (IMACs); experiment: Cell viability of encapsulated IMACs in DPA gels (Live/Dead); format: cell-based; conditions: 2% DPA gel
Method: The viability and proliferation of cells in the gels was evaluated by encapsulating human internal mammary artery derived cells (IMACs) in the gels. IMACs were isolated as described in copending U.S. patent application Ser. No. 12/885,855. Cells were thawed from storage and cultured for four days in advanced DMEM/F12 media. After four days, the cells were trypsinized and counted by the Guava ViaCount (Millipore, Billerica, Mass.) methodology. Cells were re-suspended in advanced DMEM/F12 media at a density of 1,000,000 cells/ml. Encapsulation of the cells in the gels was achieved by adding 100 μl cell suspension to 100 μl of a 4 wt % DPA solution in ultrapure in a 24 well plate, resulting in a final DPA concentration of 2%. The gels were incubated for 1 h at 37° C., 5% CO2 after which 1000 μl media was added on top of the gel. Cells were incubated at 37° C., 5% CO2. Every 3-4 days of culture, 500 μl media was replaced. The cells were cultured for 3 weeks and cells were assessed after 1, 2 and 3 weeks with Live/Dead. […] The IMAC cells appear to have high motility in these gels as evidenced by the channels that they create in the gels.

Sprague-Dawley rats = experiment: Biocompatibility study, gel injected into intra-gluteal muscle pocket; format: in vivo; conditions: rat, in vivo
Method: A biocompatibility study was performed on Gly-Val-Ala-Val-Ala-Val-Ala-Glu-Gly-Glu (SEQ ID NO: 4), Gly-Phe-Gly-Phe-Gly-Phe-Gly-Glu-Gly-Glu (SEQ ID NO: 5) and Gly-Phe-Gly-Phe-Gly-Phe-Gly-Gln-Gln-Ser (SEQ ID NO: 8) DPAs. Lyophilized DPA powders were e-beam sterilized in 1.5 cc polypropylene cryovials at 15 KGy. Gels were pre-formed in 1 cc syringes by mixing a 4 wt % DPA solution in water for injection in a 1:1 ratio with DMEM followed by immediate aspiration into the syringe. In the case of the formulations with the Glu-Gly-Glu (SEQ ID NO: 27) sequence in the solubility enhancing region, 10 μl of a sterile 100 mg/cc calcium chloride solution was mixed in before aspiration into the syringe. An intra-gluteal muscle pocket was created in Sprague-Dawley rats after which 100 μl of gel was injected using a catheter fitted to the syringe. Subsequently, the pocket was closed with polyglactin 910 sutures sold under the tradename VICRYL (Ethicon, Somerville, N.J.). Tissue was harvested at 3, 7 and 28 days after implantation.

[5] = listed as Gly-Phe-Gly-Phe-Gly-Phe-Gly-Gln-Gln-Ser(DPA)_ (SEQ ID NO: 8)

For `CCCCCCCCCCCCCCCC(=O)NC(C(=O)NCC(=O)N[C@@H](Cc1ccccc1)C(=O)NCC(=O)N[C@@H](Cc1ccccc1)C(=O)NCC(=O)N[C@@H](Cc1ccccc1)C(=O)NCC(=O)N[C@@H](CCC(N)=O)C(=O)N[C@@H](CCC(N)=O)C(=O)N[C@@H](CO)C(=O)O)C(=O)NCC(=O)N[C@@H](Cc1ccccc1)C(=O)NCC(=O)N[C@@H](Cc1ccccc1)C(=O)NCC(=O)N[C@@H](Cc1ccccc1)C(=O)NCC(=O)N[C@@H](CCC(N)=O)C(=O)N[C@@H](CCC(N)=O)C(=O)N[C@@H](CO)C(=O)O` [Gly-Phe-Gly-Phe-Gly-Phe-Gly-Gln-Gln-Ser], the “Behaviour of gel after disruption by vortexing” value ([1]; 4 wt % in water) was “reform when left alone”, the “Time to self-supporting gel” value ([1]; 4 wt % in water) was “approx. 5 minutes” and the “Gelation (self-supporting gel on inversion), DMEM” value ([1]; no calcium added) was “Yes and Yes,”. For the same molecule, the “Gelation (self-supporting gel on inversion), DMEM” value ([1]; no calcium added, listed as Gly-Phe-Gly-Phe-Gly-Phe-Gly-Gln-Gln-Ser(DPA)_ (SEQ ID NO: 8)) was “Yes,”, the “Concentration at which gel forms, PBS” value [1] was 4 wt % and 4% and the “Gelation (self-supporting gel on inversion), PBS” value [1] was “Yes and Yes,”. The “Gelation (self-supporting gel on inversion), PBS” value [1, 5] was “Yes,”, the “Concentration at which gel forms, PBS” value [1, 5] was 4% and the “Concentration at which gel forms, Water” value [1] was 4 wt % and 4%. For the same molecule, the “Gelation (self-supporting gel on inversion), Water” value [1] was “Yes and Yes,”, the “Gelation (self-supporting gel on inversion), Water” value [1, 5] was “Yes,” and the “Concentration at which gel forms, Water” value [1, 5] was 4%. The “Concentration at which gel forms, DMEM” value ([1]; no calcium added) was 2%, the “Concentration at which gel forms, DMEM” value ([1]; no supplemental calcium) was 2 wt % and the “Gel point after mixing” value [2] was 74 s. The “Viability of hKDC cells, Live/Dead” value [3] was “very limited numbers of dead cells were detected”, the “Viability of IMAC cells, Live/Dead” value ([4]; after 1, 2 and 3 weeks) was “very limited numbers of dead cells were detected” and the “Motility of IMAC cells in the gel” value ([4]; three weeks, channels created in the gels) was “high motility”. The Gross observations (Sprague-Dawley rats) was “some fluid buildup at day 3”.
